{
  "source": "patent US20230134782A1",
  "about": "“TREATMENT OF SKIN CONDITIONS USING HIGH KRAFFT TEMPERATURE ANIONIC SURFACTANTS” (ARCUTIS BIOTHERAPEUTICS, INC., priority 2020, published 2023)",
  "data": [
    {"assay": "not given", "conditions": "commonly used anionic surfactants; no source or concentration printed; cited from earlier work", "units": {"Krafft Temperature": "°C"}, "values": [
      {"molecule": "CCCCCCCCCCCCOS(=O)(=O)O.N", "note": "[Ammonium lauryl sulfate]", "Krafft Temperature": 10},
      {"molecule": "CCCCCCCCCCCCCCCCOS(=O)(=O)[O-].[Na+]", "note": "[Sodium cetyl sulfate]", "Krafft Temperature": 45.0},
      {"molecule": "CCCCCCCCCCOS(=O)(=O)[O-].[Na+]", "note": "[Sodium decyl sulfate]", "Krafft Temperature": 8.0},
      {"molecule": "CCCCCCCCCCS(=O)(=O)[O-].[Na+]", "note": "[Sodium decyl sulfonate]", "Krafft Temperature": 22.5},
      {"molecule": "CCCCCCCCCCCCCCCCS(=O)(=O)[O-].[Na+]", "note": "[Sodium hexadecyl sulfonate]", "Krafft Temperature": 57.0},
      {"molecule": "CCCCCCCCCCCC(=O)[O-].[Na+]", "note": "[Sodium laurate]", "Krafft Temperature": 21.5},
      {"molecule": "CCCCCCCCCCCCOP(=O)([O-])[O-].[Na+].[Na+]", "note": "[Sodium lauryl phosphate]", "Krafft Temperature": 31.5},
      {"molecule": "CCCCCCCCCCCCOS(=O)(=O)[O-].[Na+]", "note": "[Sodium lauryl sulfate]", "Krafft Temperature": 16.0},
      {"molecule": "CCCCCCCCCCCCCC(=O)[O-].[Na+]", "note": "[Sodium myristate]", "Krafft Temperature": 39},
      {"molecule": "CCCCCCCCCCCCCCOS(=O)(=O)[O-].[Na+]", "note": "[Sodium myristyl sulfate]", "Krafft Temperature": 30.0},
      {"molecule": "CCCCCCCCCCCCCCS(=O)(=O)[O-].[Na+]", "note": "[Sodium myristyl sulfonate, Sodium myristyl* sulfonate]", "Krafft Temperature": 48.0},
      {"molecule": "CCCCCCCCCCCCCCCC(=O)[O-].[Na+]", "note": "[Sodium palmitate]", "Krafft Temperature": 69},
      {"molecule": "CCCCCCCCCCCCCCCCCC(=O)[O-].[Na+]", "note": "[Sodium stearate]", "Krafft Temperature": 71},
      {"molecule": "CCCCCCCCCCCCCCCCCCOS(=O)(=O)[O-].[Na+]", "note": "[Sodium stearyl sulfate]", "Krafft Temperature": 56.0},
      {"molecule": "Sodium laureth sulfate", "Krafft Temperature": "<0"}
    ]},
    {"assay": "Krafft temperature determination in distilled water (water bath, dissolution and frothing on shaking)", "assay_type": "physicochemical", "conditions": "aqueous solution in distilled water: 0.012% ceteth-10 phosphate, 0.017% dicetyl phosphate, 0.014% sodium cetostearyl sulfate", "procedure": "(§1) 0.0012 grams of ceteth-10 phosphate (Moravek Lot 671-144-000-A-20190821-JHO) was weighed into a 20 mL glass scintillation vial. 10.0113 grams of distilled water was added to the scintillation vial and the vial was tightly capped and placed in a water bath. […] The surfactant remained as waxy particles sedimented on the bottom of the vial. After equilibration at 53.0° C. for 435 minutes, ceteth-10 phosphate had dissolved and the sample frothed when shaken. The Krafft temperature of a 0.012% ceteth-10 phosphate aqueous solution was determined to be 53.0° C.\n(§2) 0.0019 grams of dicetyl phosphate (Sigma dihexadecyl phosphate lot STBH2863) was weighed into a 20 mL glass scintillation vial. 11.2262 grams of distilled water was added to the scintillation vial and the vial was tightly capped and placed in a water bath. […] After equilibration at 58.0° C. for 450 minutes, dicetyl phosphate had dissolved and the sample frothed when shaken. The Krafft temperature of a 0.017% dicetyl phosphate aqueous solution was determined to be 58.0° C. 0.0024 grams of sodium cetostearyl sulfate (BASF Lanette E Granules Lot 0021826181) was weighed into a 20 mL glass scintillation vial. 17.0763 grams of distilled water was added to the scintillation vial and the vial was tightly capped and placed in a water bath. […] The Krafft temperature of a 0.014% sodium cetostearyl sulfate aqueous solution was determined to be 41.0° C.", "units": {"Krafft Temperature": "°C"}, "values": [
      {"molecule": "ceteth-10 phosphate [Ceteth - 10 phosphate]", "Krafft Temperature": 53}
    ]},
    {"assay": "Krafft temperature determination in distilled water (water bath, dissolution and frothing on shaking)", "assay_type": "physicochemical", "conditions": "aqueous solution in distilled water: 0.012% ceteth-10 phosphate, 0.017% dicetyl phosphate, 0.014% sodium cetostearyl sulfate; listed as ceteth-10 phosphate", "procedure": "as §1, §2", "units": {"Krafft Temperature": "°C"}, "values": [
      {"molecule": "ceteth-10 phosphate [Ceteth - 10 phosphate]", "Krafft Temperature": 53}
    ]}
  ]
}
